# Patent US5422344A, “Method of treating retroviral infections in mammals” (The United States of America as represented by the …, priority 1990, dated 1995)
# Where two headings read alike, the source gives them in different places.
# Legend:
# [1] = system: HIV-IIIB (HIV-1) replication in H9 cells; test: HIV replication (RT activity) in acute infection of H9 cells; format: cell-based; conditions: for RT activity: 7 days postinfection; for RT/Cell: 1 h treatment
# Method: HIV-Acute Infection of H9 Cells by HIV and Drug Treatment: One ml of culture supernatant of H9/HIV-IIIB cells (10^6 /ml) was used after centrifugation (200xg, 20 min) and filtration (0.45 μm) for infecting 10^5 H9 cells in the presence or absence of different levels of CPT, m-AMSA or VP-16. Control cells received equivalent volumes of DMSO. The cells were incubated for 1 h at 37° C., pelleted, washed and resuspended in fresh media. […] (1981) J. Virol. 38: 239-48.
# CPT Inhibition of HIV Replication Following Acute Infection of H9 Cells with HIV-IIIB. In order to determine appropriate concentrations of CPT which would permit cell viability and growth while inhibiting viral infection or replication, H9 cells were infected with HIV-IIIB as described above in the absence or presence of different CPT doses. The cells were incubated for 1 h at 37° C., pelleted, washed and resuspended in fresh media. Reverse transcriptase (RT) activity in the culture media was measured seven days after infection.
# Since CPT is an anticancer drug and a known topo I inhibitor, its effects on HIV replication were compared to those of other anticancer drugs which are known to inhibit the related topoisomerase II enzyme.
# [2] = system: Friend virus/spleen focus forming virus (SFFV); test: Inhibition of Friend virus disease in mice (spleen weight, IP); format: in vivo, male NFS mice; conditions: for Number Friend disease positive (spleen weight >0.2 g) / Spleen weight AVG.: 4 weeks
# Source text: INHIBITION OF FRIEND VIRUS DISEASE IN MICE BY CAMPTOTHECIN. […] The Friend virus/spleen focus forming virus (SFFV) mouse model was used to test CPT in vivo. SFFV is a defective type C retrovirus which induces the rapid onset of erythroleukemia, characterized by severe splenomegaly, and death of the affected animal within 3-6 weeks after innoculation. A well characterized stock of SFFV, in complex with an amphotropic murine C-type virus which induced only a low incidence of lymphoid and myloid disease after a long latency, was injected into adult mice at viral dilutions which would be expected to induce Friend erythroleukemia in essentially 100% of infected mice.
# Male NFS mice were injected IP with 0.5 ml of virus stock to which CPT, disolved in DMSO, was added. The average weight of a mouse was 24 g, and CPT was added from a stock at 10 mg/ml. DMSO was added to A, E and I viral inoculum at 2.8%, the maximum level. Animals were sacrificed 4 weeks after inoculation, and spleens were weighed to determine the incidence of Friend virus induced splenomegaly.
# viral associated topo I = test: Inhibition of viral associated topo I activity; format: biochemical
# [3] = system: experimental tumors and human colon cancer; conditions: cited from earlier work
# [4] = group B, virus dil. 1/500, CPT 5 mg/kg IP
# [5] = group C, virus dil. 1/500, CPT 10 mg/kg IP
# [6] = group D, virus dil. 1/500, CPT 20 mg/kg IP
# [7] = group F, virus dil. 1/2000, CPT 5 mg/kg IP
# [8] = group G, virus dil. 1/2000, CPT 10 mg/kg IP
# [9] = group H, virus dil. 1/2000, CPT 20 mg/kg IP
# [10] = group J, no virus, CPT 5 mg/kg IP
# [11] = group K, no virus, CPT 10 mg/kg IP
# [12] = group L, no virus, CPT 20 mg/kg IP
compound,measurement,setting,value
"CC[C@@]1(O)C(=O)OCc2c1cc1n(c2=O)Cc2cc3ccccc3nc2-1 [CPT, Camptothecin]",RT activity,"[1]; 0.005 μM CPT, 1 h",429 ± 116 cpm/cell 10^5
same,RT/Cell,"[1]; 0.005 μM CPT, day 7 after infection",5400 cpm/10^5 Cell
same,RT/Cell,"[1]; 0.005 μM CPT, day 8 after infection",34268 cpm/10^5 Cell
same,RT/Cell,"[1]; 0.005 μM CPT, day 9 after infection",102450 cpm/10^5 Cell
same,RT activity,"[1]; 0.01 μM CPT, 1 h",528 ± 40 cpm/cell 10^5
same,RT/Cell,"[1]; 0.01 μM CPT, day 7 after infection",5085 cpm/10^5 Cell
same,RT/Cell,"[1]; 0.01 μM CPT, day 8 after infection",33968 cpm/10^5 Cell
same,RT/Cell,"[1]; 0.01 μM CPT, day 9 after infection",112870 cpm/10^5 Cell
same,RT activity,"[1]; 0.02 μM CPT, 1 h",400 ± 103 cpm/cell 10^5
same,RT/Cell,"[1]; 0.02 μM CPT, day 7 after infection",29.7 cpm/10^5 Cell
same,RT/Cell,"[1]; 0.02 μM CPT, day 8 after infection",325 cpm/10^5 Cell
same,RT/Cell,"[1]; 0.02 μM CPT, day 9 after infection",65761 cpm/10^5 Cell
same,inhibition of HIV production,"[1]; 0.05 μM CPT, 8 and 9 days after infection",essentially complete inhibition of HIV production
same,RT activity,"[1]; 0.05 μM CPT, 1 h",235 ± 62 cpm/cell 10^5
same,RT/Cell,"[1]; 0.05 μM CPT, day 7 after infection",0.03 cpm/10^5 Cell
same,RT/Cell,"[1]; 0.05 μM CPT, day 8 after infection",1.5 cpm/10^5 Cell
same,RT/Cell,"[1]; 0.05 μM CPT, day 9 after infection",9.4 cpm/10^5 Cell
same,RT activity,"[1]; 0.1 μM CPT, 1 h",106 ± 30 cpm/cell 10^5
same,RT activity,"[1]; 0.2 μM CPT, 1 h",139 ± 96 cpm/cell 10^5
same,inhibitory effect on HIV replication,"[1]; 0.005-0.02 μM CPT, 1 h, 7 days after infection",89-93%
same,effect of 1 hour exposure during viral infection on HIV replication,[1]; 1 hour exposure,sufficient to prevent HIV replication
same,inhibition at 0.005 µM,"[1]; Human immunodeficiency virus 1, IIIB, H9, read-out: RT % Inhibition, 0.005 μM CPT, 1 h treatment, day 7 after infection",84%
same,inhibition at 0.005 µM,"[1]; Human immunodeficiency virus 1, IIIB, H9, read-out: RT % Inhibition, 0.005 μM CPT, 1 h treatment, day 8 after infection",74%
same,inhibition at 0.005 µM,"[1]; Human immunodeficiency virus 1, IIIB, H9, read-out: RT % Inhibition, 0.005 μM CPT, 1 h treatment, day 9 after infection",24%
same,inhibition at 0.01 µM,"[1]; Human immunodeficiency virus 1, IIIB, H9, read-out: RT % Inhibition, 0.01 μM CPT, 1 h treatment, day 7 after infection",85%
same,inhibition at 0.01 µM,"[1]; Human immunodeficiency virus 1, IIIB, H9, read-out: RT % Inhibition, 0.01 μM CPT, 1 h treatment, day 8 after infection",75%
same,inhibition at 0.01 µM,"[1]; Human immunodeficiency virus 1, IIIB, H9, read-out: RT % Inhibition, 0.01 μM CPT, 1 h treatment, day 9 after infection",17%
same,inhibition at 0.02 µM,"[1]; Human immunodeficiency virus 1, IIIB, H9, read-out: RT % Inhibition, 0.02 μM CPT, 1 h treatment, day 7 after infection",100%
same,inhibition at 0.02 µM,"[1]; Human immunodeficiency virus 1, IIIB, H9, read-out: RT % Inhibition, 0.02 μM CPT, 1 h treatment, day 8 after infection",98.8%
same,inhibition at 0.02 µM,"[1]; Human immunodeficiency virus 1, IIIB, H9, read-out: RT % Inhibition, 0.02 μM CPT, 1 h treatment, day 9 after infection",52%
same,inhibition at 0.05 µM,"[1]; Human immunodeficiency virus 1, IIIB, H9, read-out: RT % Inhibition, 0.05 μM CPT, 1 h treatment, day 7 after infection",100%
same,inhibition at 0.05 µM,"[1]; Human immunodeficiency virus 1, IIIB, H9, read-out: RT % Inhibition, 0.05 μM CPT, 1 h treatment, day 8 after infection",100%
same,inhibition at 0.05 µM,"[1]; Human immunodeficiency virus 1, IIIB, H9, read-out: RT % Inhibition, 0.05 μM CPT, 1 h treatment, day 9 after infection",100%
same,inhibition at 0.005 µM,"[1]; Human immunodeficiency virus 1, IIIB, H9, read-out: RT activity % Inhibition, 0.005 μM CPT, 1 h, 7 days postinfection",89 ± 4%
same,inhibition at 0.01 µM,"[1]; Human immunodeficiency virus 1, IIIB, H9, read-out: RT activity % Inhibition, 0.01 μM CPT, 1 h, 7 days postinfection",89 ± 4%
same,inhibition at 0.02 µM,"[1]; Human immunodeficiency virus 1, IIIB, H9, read-out: RT activity % Inhibition, 0.02 μM CPT, 1 h, 7 days postinfection",93 ± 2%
same,inhibition at 0.05 µM,"[1]; Human immunodeficiency virus 1, IIIB, H9, read-out: RT activity % Inhibition, 0.05 μM CPT, 1 h, 7 days postinfection",96 ± 1.5%
same,inhibition at 0.1 µM,"[1]; Human immunodeficiency virus 1, IIIB, H9, read-out: RT activity % Inhibition, 0.1 μM CPT, 1 h, 7 days postinfection",98 ± 0.2%
same,inhibition at 0.2 µM,"[1]; Human immunodeficiency virus 1, IIIB, H9, read-out: RT activity % Inhibition, 0.2 μM CPT, 1 h, 7 days postinfection",98 ± 0.8%
same,inhibiting the initiation of infection by HIV,[1]; cell culture,has been demonstrated
same,prevention of HIV replication (RT activity),"[1]; one-hour treatment, 7 days after infection",94-100%
same,Number Friend disease positive (spleen weight >0.2 g),[2]; [4],4/5
same,Spleen weight AVG.,[2]; [4],0.78 g
same,Number Friend disease positive (spleen weight >0.2 g),[2]; [5],3/5
same,Spleen weight AVG.,[2]; [5],0.84 g
same,Number Friend disease positive (spleen weight >0.2 g),[2]; [6],4/5
same,Spleen weight AVG.,[2]; [6],0.28 g
same,Number Friend disease positive (spleen weight >0.2 g),[2]; [7],1/5
same,Spleen weight AVG.,[2]; [7],0.22 g
same,Number Friend disease positive (spleen weight >0.2 g),[2]; [8],0/5
same,Spleen weight AVG.,[2]; [8],0.18 g
same,Number Friend disease positive (spleen weight >0.2 g),[2]; [9],1/5
same,Spleen weight AVG.,[2]; [9],0.22 g
same,Number Friend disease positive (spleen weight >0.2 g),[2]; [10],0/5
same,Spleen weight AVG.,[2]; [10],0.12 g
same,Number Friend disease positive (spleen weight >0.2 g),[2]; [11],0/5
same,Spleen weight AVG.,[2]; [11],0.10 g
same,Number Friend disease positive (spleen weight >0.2 g),[2]; [12],0/5
same,Spleen weight AVG.,[2]; [12],0.12 g
same,induction of erythroleukemia by SFFV,[2]; in vivo,blocks the induction of erythroleukemia by SFFV in vivo
same,effect on number of mice with enlarged spleens and average spleen weight,"[2]; vs control, virus infected mice",reduced the number of mice showing enlarged spleens and the average spleen weight
same,viral associated topo I activity,viral associated topo I,inhibited
same,antitumor activity,[3],strong antitumor activity
